According to ChEMBL document CHEMBL4725351, “Cyclic Derivative of Host-Defense Peptide IDR-1018 Improves Proteolytic Stability, Suppresses Inflammation, and Enhances In Vivo Activity” (J Med Chem, 2020):
≈ marks a conversion by molar mass, not a printed value. Calls of active or inactive are those of the source. The rule behind the calls is not given here. Where a SMILES comes first, the peptide text is derived from it. Bridges are numbered along the chain shown (N, C = ends).

Key:
Staphylococcus aureus [1] = assay: Antibacterial activity against methicillin-resistant Staphylococcus aureus SAP0017 measured after overnight incubation by microtitre plate based spectrophotometric method; format: functional
Staphylococcus aureus [2] = assay: Antibacterial activity against methicillin-resistant Staphylococcus aureus USA300 LAC measured after overnight incubation by microtitre plate based spectrophotometric method; format: functional
Pseudomonas aeruginosa [3] = assay: Antibacterial activity against Pseudomonas aeruginosa PA14 measured after overnight incubation by microtitre plate based spectrophotometric method; format: functional
Pseudomonas aeruginosa [4] = assay: Antibacterial activity against Pseudomonas aeruginosa PAO1 measured after overnight incubation by microtitre plate based spectrophotometric method; format: functional
Escherichia coli [5] = assay: Antibacterial activity against Escherichia coli ATTC 489 measured after overnight incubation by microtitre plate based spectrophotometric method; format: functional
Acinetobacter baumannii [6] = assay: Antibacterial activity against Acinetobacter baumannii 5015 measured after overnight incubation by microtitre plate based spectrophotometric method; format: functional
Acinetobacter baumannii [7] = assay: Antibacterial activity against Acinetobacter baumannii 17918 measured after overnight incubation by microtitre plate based spectrophotometric method; format: functional
Klebsiella pneumoniae [8] = assay: Antibacterial activity against Klebsiella pneumoniae ATTC 13883 measured after overnight incubation by microtitre plate based spectrophotometric method; format: functional
Staphylococcus aureus [9] = assay: Antibiofilm activity against methicillin-resistant Staphylococcus aureus SAP0017 incubated for 24 hrs under shaking condition by turbidometric method; format: functional
Staphylococcus aureus [10] = assay: Antibiofilm activity against methicillin-resistant Staphylococcus aureus USA300 LAC incubated for 24 hrs under shaking condition by turbidometric method; format: functional
Pseudomonas aeruginosa [11] = assay: Antibiofilm activity against Pseudomonas aeruginosa PA14 incubated for 24 hrs under shaking condition by turbidometric method; format: functional
Pseudomonas aeruginosa [12] = assay: Antibiofilm activity against Pseudomonas aeruginosa PAO1 incubated for 24 hrs under shaking condition by turbidometric method; format: functional
Escherichia coli [13] = assay: Antibiofilm activity against Escherichia coli ATTC 489 incubated for 24 hrs under shaking condition by turbidometric method; format: functional
Acinetobacter baumannii [14] = assay: Antibiofilm activity against Acinetobacter baumannii 5015 incubated for 24 hrs under shaking condition by turbidometric method; format: functional
Acinetobacter baumannii [15] = assay: Antibiofilm activity against Acinetobacter baumannii 17918 incubated for 24 hrs under shaking condition by turbidometric method; format: functional
Klebsiella pneumoniae [16] = assay: Antibiofilm activity against Klebsiella pneumoniae ATTC 13883 incubated for 24 hrs under shaking condition by turbidometric method; format: functional
Staphylococcus aureus [17] = assay: Antibiofilm activity against methicillin-resistant Staphylococcus aureus SAP0017 assessed as reduction in biofilm biomass incubated overnight by crystal violet staining assay; format: functional
Staphylococcus aureus [18] = assay: Antibiofilm activity against methicillin-resistant Staphylococcus aureus USA300 LAC assessed as reduction in biofilm biomass measured after overnight incubation by crystal violet staining assay; format: functional
Pseudomonas aeruginosa [19] = assay: Antibiofilm activity against 24 hrs preformed Pseudomonas aeruginosa PA14 biofilm assessed as reduction in biofilm viability at 7.2 to 30.3 uM by TTC assay relative to control; format: functional; details: dose microM 7.2-30.3
Pseudomonas aeruginosa [20] = assay: Antibiofilm activity against 24 hrs preformed Pseudomonas aeruginosa PAO1 biofilm assessed as reduction in biofilm viability at 7.2 to 30.3 uM by TTC assay relative to control; format: functional; details: dose microM 7.2-30.3
Escherichia coli [21] = assay: Antibiofilm activity against 24 hrs preformed Escherichia coli ATTC 489 biofilm assessed as reduction in biofilm viability at 7.2 to 30.3 uM by TTC assay relative to control; format: functional; details: dose microM 7.2-30.3
Acinetobacter baumannii [22] = assay: Antibiofilm activity against 24 hrs preformed Acinetobacter baumannii 5015 biofilm assessed as reduction in biofilm viability at 7.2 to 30.3 uM by TTC assay relative to control; format: functional; details: dose microM 7.2-30.3
Acinetobacter baumannii [23] = assay: Antibiofilm activity against 24 hrs preformed Acinetobacter baumannii 17918 biofilm assessed as reduction in biofilm viability at 7.2 to 30.3 uM by TTC assay relative to control; format: functional; details: dose microM 7.2-30.3
Klebsiella pneumoniae [24] = assay: Antibiofilm activity against 24 hrs preformed Klebsiella pneumoniae ATTC 13883 biofilm assessed as reduction in biofilm viability at 7.2 to 30.3 uM by TTC assay relative to control; format: functional; details: dose microM 7.2-30.3
Trypsin = Trypsin (Homo sapiens, UniProt P07477+P07478+P35030); assay: Stability of the compound in pH 8.2 ammonium bicarbonate buffer assessed as trypsin (unknown origin)-mediated drug degradation at 20 ug/ml measured after 120 mins by RP-HPLC analysis; format: ADME, protein assay; details: trypsin in ammonium bicarbonate buffer, pH 8.2, at 20 µg/mL, read-out: Drug degradation
[25] = Aggregation property of the compound in water at 1 mg/ml by turbidimetric method; format: physicochemical; details: buffer
[26] = Aggregation property of the compound in saline at 1 mg/ml by turbidimetric method; format: physicochemical; details: buffer
[27] = Aggregation property of the compound in 5% dextrose at 1 mg/ml by turbidimetric method; format: physicochemical
[28] = Aggregation property of the compound in RPMI medium with 1% FBS at 1 mg/ml by turbidimetric method; format: physicochemical
[29] = Aggregation property of the compound in sodium citrate solution at 10 mM by turbidimetric method; format: physicochemical; details: 10000 µM
[30] = Aggregation property of the compound in sodium phosphate solution at 10 mM by turbidimetric method; format: physicochemical; details: 10000 µM
[31] = Aggregation property of the compound in sodium nitrate solution at 10 mM by turbidimetric method; format: physicochemical; details: 10000 µM
[32] = Aggregation of the compound in human PBMC assessed as amorphous morphology at 50 ug/ml measured after 4 hrs by microscopic analysis; format: ADME, tissue-based; details: dose 50 µg/ml
[33] = Cytotoxicity against human PBMC assessed as reduction in cell viability at 100 ug/ml measured after 24 hrs by LDH assay; format: tissue-based; details: dose 100 µg/ml
PBMC [34] = assay: Immunomodulatory activity in human PBMC assessed as increase in MCP1 production at 25 ug/ml measured after overnight incubation by ELISA; format: functional, tissue-based; details: dose 25.0 µg/ml
PBMC [35] = assay: Immunomodulatory activity in human PBMC assessed as change in TNFalpha production at 25 ug/ml measured after overnight incubation by ELISA; format: functional, tissue-based; details: dose 25.0 µg/ml
PBMC [36] = assay: Immunomodulatory activity in human PBMC assessed as increase in IL-1RA production at 25 ug/ml measured after overnight incubation by ELISA; format: functional, tissue-based; details: dose 25.0 µg/ml
PBMC [37] = assay: Immunomodulatory activity in human PBMC assessed as reduction in LPS-induced TNFalpha production at 25 ug/ml measured after overnight incubation by ELISA; format: functional, tissue-based; details: dose 25.0 µg/ml
[38] = Immunomodulatory activity in human PBMC assessed as increase in LPS-induced MCP1 production at 25 ug/ml measured after overnight incubation by ELISA; format: functional; details: dose 25 µg/ml
[39] = Immunomodulatory activity in human PBMC assessed as increase in LPS-induced IL10 production at 25 ug/ml measured after overnight incubation by ELISA; format: functional; details: dose 25 µg/ml
[40] = Immunomodulatory activity in human PBMC assessed as increase in LPS-induced IL1RA production at 25 ug/ml measured after overnight incubation by ELISA; format: functional; details: dose 25 µg/ml
[41] = Toxicity in CD1 mouse assessed as redness under the skin at 10 mg/kg, sc measured after 16 hrs; format: organism-based; details: in vivo
Staphylococcus aureus [42] = assay: Antibacterial activity against Staphylococcus aureus USA300 LAC infected in CD1 mouse assessed as reduction in dermonecrosis at 7.5 mg/kg, sc administered at infection site measured after 3 days by caliper method relative to control; format: functional; set-up: scale not given: the % may be the effect or the level left; details: time 3 day
Staphylococcus aureus [43] = assay: Antibacterial activity against Staphylococcus aureus USA300 LAC infected in CD1 mouse assessed as dermonecrosis area at 7.5 mg/kg, sc administered at infection site measured after 3 days by caliper method (Rvb > 75 mm2); format: functional; details: time 3 day
Staphylococcus aureus [44] = assay: Antibacterial activity against Staphylococcus aureus USA300 LAC infected in CD1 mouse assessed as reduction in bacterial load at 7.5 mg/kg, sc administered at infection site measured after 3 days by colony counting method relative to control; format: functional; details: time 3 day

## CC[C@H](C)[C@@H]1NC(=O)[C@H](CCCNC(=N)N)NC(=O)[C@H](C(C)C)NC(=O)[C@H](C)NC(=O)[C@H](C(C)C)NC(=O)[C@H]([C@@H](C)CC)NC(=O)[C@H](CC(C)C)NC(=O)[C@H](CCCNC(=N)N)NC(=O)[C@H](C(C)C)NC(=O)CC[C@@H](C(N)=O)NC(=O)[C@H](CCCNC(=N)N)NC(=O)[C@H](CCCNC(=N)N)NC(=O)[C@H](Cc2c[nH]c3ccccc23)NC1=O (VRLIVAVRIWRRE-NH2; lactam N-13)
Staphylococcus aureus [1]
  MIC: 15.1 µM (≈ 24.9 µg/mL)
Staphylococcus aureus [2]
  MIC: 15.1 µM (≈ 24.9 µg/mL)
Pseudomonas aeruginosa [3]
  MIC: 30.3 µM (≈ 49.9 µg/mL)
Pseudomonas aeruginosa [4]
  MIC: 30.3 µM (≈ 49.9 µg/mL)
Escherichia coli [5]
  MIC: 30.3 µM (≈ 49.9 µg/mL)
Acinetobacter baumannii [6]
  MIC: 15.1 µM (≈ 24.9 µg/mL)
Acinetobacter baumannii [7]
  MIC: 15.1 µM (≈ 24.9 µg/mL)
Klebsiella pneumoniae [8]
  MIC: 15.1 µM (≈ 24.9 µg/mL)
Staphylococcus aureus [9]
  MBEC: 9.7 µM
Staphylococcus aureus [10]
  MBEC: 7.2 µM
Pseudomonas aeruginosa [11]
  MBEC: 38.8 µM
Pseudomonas aeruginosa [12]
  MBEC: 38.8 µM
Escherichia coli [13]
  MBEC: 38.8 µM
Acinetobacter baumannii [14]
  MBEC: 15.1 µM
Acinetobacter baumannii [15]
  MBEC: 15.1 µM
Klebsiella pneumoniae [16]
  MBEC: 9.7 µM
Staphylococcus aureus [17]
  MBIC: 7.2 µM
Staphylococcus aureus [18]
  MBIC: 7.2 µM
Pseudomonas aeruginosa [19]
  Activity: 70%
Pseudomonas aeruginosa [20]
  Activity: 70%
Escherichia coli [21]
  Activity: 70%
Acinetobacter baumannii [22]
  Activity: 70%
Acinetobacter baumannii [23]
  Activity: 70%
Klebsiella pneumoniae [24]
  Activity: 70%
Trypsin
  metabolised at 2 h, 20 ug/ml: 30%
[25]
  Activity: Not Active
[26]
  Activity: Not Active
[27]
  Activity: Not Active
[28]
  Activity: Active
[29]
  Activity: Not Active
[30]
  Activity: Not Active
[31]
  Activity: Not Active
[32]
  Activity: Not Active
[33]
  Activity: Toxic
PBMC [34]
  Activity: Active
PBMC [35]
  Activity: inactive
PBMC [36]
  Activity: Active
PBMC [37]
  Activity: Active
[38]
  Activity: 35%
[39]
  Activity: 30%
[40]
  Activity: 35%
[41]
  Activity: Toxic
Staphylococcus aureus [42]
  Activity: 90%
Staphylococcus aureus [43]
  Activity: 5 mm2
Staphylococcus aureus [44]
  fold change (FC): 1000
